# Experimental data published in ChEMBL document CHEMBL2331474, “Development of a selective peptide macrocycle inhibitor of coagulation factor XII toward the generation of a safe antithrombotic therapy” (J Med Chem, 2013).
# Numbered stars: 1 amine (or outer) side, 2 acyl side, 3 side chain; on linkers, the order of the positions; unused ones are H or OH. Bridge positions count the residues as written; N and C are the ends. Peptide text beside a SMILES is read from it. TBMB = c1c(C[*:1])cc(C[*:3])cc1C[*:2]
# What was measured:
# Coagulation factor XII = target: T1, Coagulation factor XII (Homo sapiens, UniProt P00748); assay: Inhibition of human biotinylated beta factor 12a expressed in Escherichia coli TG1 using Z-Gly-Gly-Arg-AMC as substrate assessed as residual activity by fluorometric analysis
# T1 sequence (P00748 whole entry): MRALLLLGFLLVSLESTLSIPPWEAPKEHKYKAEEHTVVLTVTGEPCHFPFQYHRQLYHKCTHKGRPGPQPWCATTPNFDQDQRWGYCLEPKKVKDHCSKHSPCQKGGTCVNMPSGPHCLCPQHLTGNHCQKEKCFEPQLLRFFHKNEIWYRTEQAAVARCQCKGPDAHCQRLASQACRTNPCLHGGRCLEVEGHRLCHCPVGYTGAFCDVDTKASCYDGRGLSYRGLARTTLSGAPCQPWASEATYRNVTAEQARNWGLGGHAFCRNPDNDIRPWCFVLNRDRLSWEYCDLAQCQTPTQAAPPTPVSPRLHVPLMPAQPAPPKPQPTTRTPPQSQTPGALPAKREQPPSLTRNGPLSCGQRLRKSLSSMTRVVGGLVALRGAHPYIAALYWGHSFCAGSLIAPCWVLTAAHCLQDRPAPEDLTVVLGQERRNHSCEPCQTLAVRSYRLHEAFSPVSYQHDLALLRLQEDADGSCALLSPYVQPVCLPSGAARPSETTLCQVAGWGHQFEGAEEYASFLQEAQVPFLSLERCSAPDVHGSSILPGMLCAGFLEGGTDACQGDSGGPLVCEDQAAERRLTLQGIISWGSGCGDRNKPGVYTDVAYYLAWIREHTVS
# Plasminogen = Plasminogen (Homo sapiens, UniProt P00747); assay: Inhibition of human plasmin using H-D-Val-Leu-Lys-AMC as substrate assessed as residual activity by fluorescence plate reader analysis
# Sequence of Plasminogen (P00747 97-580 limits assumed): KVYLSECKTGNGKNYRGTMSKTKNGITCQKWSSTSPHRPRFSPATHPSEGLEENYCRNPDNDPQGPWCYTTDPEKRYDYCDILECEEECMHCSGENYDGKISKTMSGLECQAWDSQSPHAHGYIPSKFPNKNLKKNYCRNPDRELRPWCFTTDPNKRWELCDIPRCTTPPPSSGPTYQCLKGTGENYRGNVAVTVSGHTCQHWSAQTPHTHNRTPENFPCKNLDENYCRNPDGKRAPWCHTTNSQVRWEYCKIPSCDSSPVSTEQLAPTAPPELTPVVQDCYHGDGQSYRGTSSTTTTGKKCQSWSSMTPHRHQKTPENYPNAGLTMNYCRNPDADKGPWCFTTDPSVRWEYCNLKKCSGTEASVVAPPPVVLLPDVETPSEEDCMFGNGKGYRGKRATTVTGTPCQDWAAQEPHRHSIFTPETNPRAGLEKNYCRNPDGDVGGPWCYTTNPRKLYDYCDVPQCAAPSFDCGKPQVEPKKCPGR
# Sequence of Plasminogen (P00747 581-810 limits assumed): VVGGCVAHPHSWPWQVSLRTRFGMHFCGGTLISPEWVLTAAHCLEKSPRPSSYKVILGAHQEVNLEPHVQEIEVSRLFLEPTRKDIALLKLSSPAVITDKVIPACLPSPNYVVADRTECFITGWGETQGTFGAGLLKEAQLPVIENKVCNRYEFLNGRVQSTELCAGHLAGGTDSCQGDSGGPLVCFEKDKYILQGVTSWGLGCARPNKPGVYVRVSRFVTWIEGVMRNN
# Serine protease 1 = Serine protease 1 (Homo sapiens, UniProt P07477); assay: Inhibition of human trypsin using Z-Gly-Gly-Arg-AMC as substrate assessed as residual activity by fluorescence plate reader analysis
# Sequence of Serine protease 1 (P07477 whole entry): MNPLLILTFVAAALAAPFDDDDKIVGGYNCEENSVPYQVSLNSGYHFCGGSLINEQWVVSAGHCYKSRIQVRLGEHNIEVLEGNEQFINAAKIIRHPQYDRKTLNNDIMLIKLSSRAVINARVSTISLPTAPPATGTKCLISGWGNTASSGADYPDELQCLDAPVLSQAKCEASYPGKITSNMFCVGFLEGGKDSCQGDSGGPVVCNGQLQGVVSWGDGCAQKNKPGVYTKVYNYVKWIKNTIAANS
# [1] = target: Urokinase-type plasminogen activator (Homo sapiens, UniProt P00749); assay: Inhibition of human uPA using Z-Gly-Gly-Arg-AMC as substrate assessed as residual activity by fluorometric analysis
# Plasma kallikrein = Plasma kallikrein (Homo sapiens, UniProt P03952); assay: Inhibition of human PK using Z-Phe-Arg-AMC as substrate assessed as residual activity by fluorometric analysis
# Sequence of Plasma kallikrein (P03952 20-390 limits assumed): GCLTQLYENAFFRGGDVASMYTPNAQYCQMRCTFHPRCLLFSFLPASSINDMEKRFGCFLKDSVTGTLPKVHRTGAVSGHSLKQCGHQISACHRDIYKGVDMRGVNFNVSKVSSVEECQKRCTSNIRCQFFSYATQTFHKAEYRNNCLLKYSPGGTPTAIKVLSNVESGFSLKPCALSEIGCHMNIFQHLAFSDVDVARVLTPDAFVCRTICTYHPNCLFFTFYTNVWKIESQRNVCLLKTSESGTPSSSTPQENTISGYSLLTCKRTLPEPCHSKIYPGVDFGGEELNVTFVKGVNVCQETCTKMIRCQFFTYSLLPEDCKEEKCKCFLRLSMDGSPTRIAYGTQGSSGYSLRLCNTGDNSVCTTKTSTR
# Sequence of Plasma kallikrein (P03952 391-638 limits assumed): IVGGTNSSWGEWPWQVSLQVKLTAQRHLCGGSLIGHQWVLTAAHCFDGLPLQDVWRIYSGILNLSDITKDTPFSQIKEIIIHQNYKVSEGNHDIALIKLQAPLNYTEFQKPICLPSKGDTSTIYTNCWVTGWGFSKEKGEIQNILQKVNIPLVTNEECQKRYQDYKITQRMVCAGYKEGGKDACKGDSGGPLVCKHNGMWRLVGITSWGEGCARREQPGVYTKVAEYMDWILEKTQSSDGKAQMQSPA
# Prothrombin = Prothrombin (Homo sapiens, UniProt P00734); assay: Inhibition of human thrombin using Z-Gly-Gly-Arg-AMC as substrate assessed as residual activity by fluorescence plate reader analysis
# [2] = target: Tissue-type plasminogen activator (Homo sapiens, UniProt P00750); assay: Inhibition of human tPA using Z-Gly-Gly-Arg-AMC as substrate assessed as residual activity by fluorometric analysis
# Sequence of Tissue-type plasminogen activator (P00750 whole entry): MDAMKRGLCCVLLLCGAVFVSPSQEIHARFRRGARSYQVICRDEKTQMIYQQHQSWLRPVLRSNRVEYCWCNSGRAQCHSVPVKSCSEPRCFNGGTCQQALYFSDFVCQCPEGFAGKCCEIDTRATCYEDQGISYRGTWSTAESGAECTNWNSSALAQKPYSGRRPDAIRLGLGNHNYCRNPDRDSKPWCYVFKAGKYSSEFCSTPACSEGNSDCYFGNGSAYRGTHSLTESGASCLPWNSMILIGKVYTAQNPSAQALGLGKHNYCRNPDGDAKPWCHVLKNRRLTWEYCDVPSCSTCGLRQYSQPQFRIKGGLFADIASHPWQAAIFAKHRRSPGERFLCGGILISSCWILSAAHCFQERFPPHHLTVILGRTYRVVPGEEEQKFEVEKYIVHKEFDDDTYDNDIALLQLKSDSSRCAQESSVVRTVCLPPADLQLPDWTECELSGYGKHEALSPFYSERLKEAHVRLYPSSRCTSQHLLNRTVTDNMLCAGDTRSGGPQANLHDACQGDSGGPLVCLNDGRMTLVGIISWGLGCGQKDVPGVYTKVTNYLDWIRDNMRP
# Coagulation factor XI = Coagulation factor XI (Homo sapiens, UniProt P03951); assay: Inhibition of human coagulation factor 11a using Boc-Phe-Ser-Arg-AMC as substrate assessed as residual activity by fluorometric analysis
# Sequence of Coagulation factor XI (P03951 19-387 limits assumed): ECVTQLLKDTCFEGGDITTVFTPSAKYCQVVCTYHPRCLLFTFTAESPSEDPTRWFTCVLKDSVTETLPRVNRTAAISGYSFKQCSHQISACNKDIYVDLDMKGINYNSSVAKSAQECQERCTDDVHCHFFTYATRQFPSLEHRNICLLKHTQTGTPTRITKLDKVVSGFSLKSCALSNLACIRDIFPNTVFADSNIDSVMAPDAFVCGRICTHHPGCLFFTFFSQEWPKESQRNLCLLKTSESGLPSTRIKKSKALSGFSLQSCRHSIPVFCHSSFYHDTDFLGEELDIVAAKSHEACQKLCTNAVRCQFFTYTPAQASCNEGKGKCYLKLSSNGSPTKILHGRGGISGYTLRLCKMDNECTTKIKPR
# Sequence of Coagulation factor XI (P03951 388-625 limits assumed): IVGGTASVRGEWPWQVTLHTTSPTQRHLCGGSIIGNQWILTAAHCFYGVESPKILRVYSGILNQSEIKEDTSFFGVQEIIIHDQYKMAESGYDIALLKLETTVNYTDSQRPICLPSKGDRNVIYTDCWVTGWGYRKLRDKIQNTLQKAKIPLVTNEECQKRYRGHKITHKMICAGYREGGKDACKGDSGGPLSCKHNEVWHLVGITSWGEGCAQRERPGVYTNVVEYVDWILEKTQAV
# [3] = target: T2, Coagulation factor XII (Homo sapiens) (UniProt P00748); assay: Inhibition of factor 12 in human plasma assessed as decrease in residual activity relative to control
# T2 sequence (whole entry): T1 sequence (P00748 whole entry)
# [4] = target: T2, Coagulation factor XII (Homo sapiens); assay: Inhibition of factor 12 in human plasma assessed as residual activity at 50 uM relative to control
# [5] = target: T2, Coagulation factor XII (Homo sapiens); assay: Inhibition of factor 12 in human plasma assessed as residual activity at 500 uM relative to control
# Plasma = assay: Inhibition of intrinsic coagulation in human plasma assessed as increase in activated partial […] time; format: functional, cell-free
# [6] = target: T2, Coagulation factor XII (Homo sapiens); assay: Inhibition of factor 12 in human plasma assessed as residual activity at 100 uM relative to control
# [7] = target: T2, Coagulation factor XII (Homo sapiens); assay: Inhibition of factor 12 in human plasma assessed as residual activity at 20 uM relative to control
# [8] = target: T2, Coagulation factor XII (Homo sapiens); assay: Inhibition of factor 12 in human plasma assessed as residual activity at 10 uM relative to control
# [9] = target: T2, Coagulation factor XII (Homo sapiens); assay: Inhibition of factor 12 in human plasma assessed as residual activity at 200 uM relative to control
SMILES,Ki (Coagulation factor XII) [µM],Ki (Plasminogen) [µM],further results
C[C@H](NC(=O)[C@H](CC(N)=O)NC(=O)[C@H](CS)NC(=O)[C@@H](N)CCC(N)=O)C(=O)N[C@@H](CCCNC(=N)N)C(=O)N1CCC[C@H]1C(=O)N[C@@H](CS)C(=O)N1CCC[C@H]1C(=O)N[C@@H](CO)C(=O)N[C@@H](CO)C(=O)N[C@@H](Cc1ccc(O)cc1)C(=O)N[C@@H](CS)C(=O)N[C@@H](CCCNC(=N)N)C(=O)O (H-QCNARPCPSSYCR-OH),4.7,118,–
C[C@@H]1NC(=O)[C@@H]2CCCN2C(=O)[C@@H]2CCCN2C(=O)[C@@H]2CSCc3cc(cc(c3)CSC[C@H](NC(=O)[C@@H](N)CO)C(=O)NCC(=O)NCC(=O)N[C@@H](CCCNC(=N)N)C(=O)N3CCC[C@H]3C(=O)N2)CSC[C@@H](C(=O)N[C@@H](CCCCN)C(=O)O)NC(=O)[C@H](Cc2ccc(O)cc2)NC1=O (H-SCGGRPCPPAYCK-OH; linker 2-7-12 via TBMB),3.1,8.3,Ki (Serine protease 1): > 120 µM; Ki [1]: > 120 µM; Ki (Plasma kallikrein): > 120 µM; Ki (Prothrombin): > 120 µM; Ki [2]: > 120 µM; Ki (Coagulation factor XI): > 120 µM
C[C@@H]1NC(=O)[C@@H]2CCCN2C(=O)[C@@H]2CCCN2C(=O)[C@@H]2CSCc3cc(cc(c3)CSC[C@@H](C(=O)NCC(=O)O)NC(=O)[C@H](Cc3ccc(O)cc3)NC1=O)CSC[C@H](NC(=O)CN)C(=O)NCC(=O)NCC(=O)N[C@@H](CCCNC(=N)N)C(=O)N1CCC[C@H]1C(=O)N2 (H-GCGGRPCPPAYCG-OH; linker 2-7-12 via TBMB),–,–,inhibition [3]: Dose-dependent effect; Activity [4]: 70%; Activity [5]: 20%; inhibition (Plasma): Dose-dependent effect; Activity [6]: 51%; Activity [7]: 89%; Activity [8]: 95%; Activity [9]: 42%
CC(C)C[C@H](NC(=O)[C@@H]1CCCN1C(=O)[C@H](CS)NC(=O)[C@@H]1CCCN1C(=O)[C@H](CCCN=C(N)N)NC(=O)[C@H](C)NC(=O)[C@H](C)NC(=O)[C@H](CS)NC(=O)CN)C(=O)N[C@H](C(=O)N[C@@H](C)C(=O)N[C@@H](CS)C(=O)N[C@@H](Cc1c[nH]c2ccccc12)C(=O)O)[C@@H](C)O (H-GCAARPCPLTACW-OH),33.5,> 120,–
CC(C)C[C@H](NC(=O)[C@H](CS)NC(=O)[C@H](Cc1ccc(O)cc1)NC(=O)[C@@H](NC(=O)[C@H](CCC(N)=O)NC(=O)[C@@H]1CCCN1C(=O)[C@H](CS)NC(=O)[C@@H]1CCCN1C(=O)[C@H](CCCNC(=N)N)NC(=O)[C@H](C)NC(=O)[C@H](CC(=O)O)NC(=O)[C@H](CS)NC(=O)[C@H](C)N)[C@@H](C)O)C(=O)O (H-ACDARPCPQTYCL-OH),20.5,> 120,–
C[C@@H]1NC(=O)[C@@H]2CCCN2C(=O)[C@@H]2CCCN2C(=O)[C@@H]2CSCc3cc(cc(c3)CSC[C@@H](C(=O)NCC(=O)O)NC(=O)[C@H](Cc3ccc(O)cc3)NC1=O)CSC[C@H](NC(=O)CN)C(=O)NCC(=O)NCC(=O)N[C@@H](CCCN=C(N)N)C(=O)N1CCC[C@H]1C(=O)N2 (H-GCGGRPCPPAYCG-OH; linker 2-7-12 via TBMB),1.2,> 120,Ki (Serine protease 1): > 120 µM; Ki [1]: > 120 µM; Ki (Plasma kallikrein): > 120 µM; Ki (Prothrombin): > 120 µM; Ki [2]: > 120 µM; Ki (Coagulation factor XI): > 120 µM
CSCC[C@H](NC(=O)[C@@H]1CCCN1C(=O)[C@H](CS)NC(=O)[C@@H]1CCCN1C(=O)[C@H](CCCN=C(N)N)NC(=O)CNC(=O)[C@H](CC(C)C)NC(=O)[C@H](CS)NC(=O)CN)C(=O)N[C@@H](C)C(=O)N[C@@H](Cc1ccc(O)cc1)C(=O)N[C@@H](CS)C(=O)N[C@@H](CO)C(=O)O (H-GCLGRPCPMAYCS-OH),5,> 120,–
N=C(N)NCCC[C@H](NC(=O)CNC(=O)[C@H](CO)NC(=O)[C@H](CS)NC(=O)[C@@H](N)CO)C(=O)N[C@@H](CCCNC(=N)N)C(=O)N[C@@H](CS)C(=O)N1CCC[C@H]1C(=O)N1CCC[C@H]1C(=O)N[C@@H](CO)C(=O)N[C@@H](Cc1ccc(O)cc1)C(=O)N[C@@H](CS)C(=O)N[C@@H](CCCCN)C(=O)O [SCSGRRCPPSYCK] (H-SCSGRRCPPSYCK-OH),7.8,3.3,–

# Further lines, with some results ahead:
Ki (Coagulation factor XII) [µM],Ki (Plasminogen) [µM],SMILES,further results
5,> 120,CSCC[C@H](NC(=O)[C@H](CS)NC(=O)CN)C(=O)NCC(=O)N[C@@H](CCCNC(=N)N)C(=O)N1CCC[C@H]1C(=O)N[C@@H](CS)C(=O)N1CCC[C@H]1C(=O)N[C@H](C(=O)N[C@@H](CO)C(=O)N[C@@H](Cc1ccc(O)cc1)C(=O)N[C@@H](CS)C(=O)N[C@@H](Cc1ccccc1)C(=O)O)C(C)C (H-GCMGRPCPVSYCF-OH),–
11.2,14.2,CC(C)C[C@H](NC(=O)[C@@H]1CCCN1C(=O)[C@H](CS)NC(=O)[C@@H]1CCCN1C(=O)[C@H](CCCNC(=N)N)NC(=O)CNC(=O)[C@H](Cc1cnc[nH]1)NC(=O)[C@H](CS)NC(=O)CN)C(=O)N[C@@H](CCC(N)=O)C(=O)N[C@@H](Cc1ccc(O)cc1)C(=O)N[C@@H](CS)C(=O)N[C@@H](CCCCN)C(=O)O (H-GCHGRPCPLQYCK-OH),–
–,4.3,C[C@@H]1NC(=O)[C@@H]2CCCN2C(=O)[C@@H]2CCCN2C(=O)[C@@H]2CSCc3cc(cc(c3)CSC[C@H](NC(=O)[C@@H](N)CO)C(=O)NCC(=O)NCC(=O)N[C@@H](CCCNC(=N)N)C(=O)N3CCC[C@H]3C(=O)N2)CSC[C@@H](C(=O)NCC(N)=O)NC(=O)[C@H](Cc2ccc(O)cc2)NC1=O (H-SCGGRPCPPAYCG-NH2; linker 2-7-12 via TBMB),–
3.1,8.3,C[C@H](NC(=O)[C@@H]1CCCN1C(=O)[C@@H]1CCCN1C(=O)[C@H](CS)NC(=O)[C@@H]1CCCN1C(=O)[C@H](CCCN=C(N)N)NC(=O)CNC(=O)CNC(=O)[C@H](CS)NC(=O)[C@@H](N)CO)C(=O)N[C@@H](Cc1ccc(O)cc1)C(=O)N[C@@H](CS)C(=O)N[C@@H](CCCCN)C(=O)O (H-SCGGRPCPPAYCK-OH),–
> 75,–,CC(C)C[C@H](NC(=O)[C@H](CCCNC(=N)N)NC(=O)[C@H](Cc1ccccc1)NC(=O)[C@H](C)NC(=O)[C@H](CS)NC(=O)CNC(=O)[C@H](CCC(N)=O)NC(=O)[C@@H](NC(=O)[C@@H](NC(=O)[C@H](CS)NC(=O)[C@@H](N)[C@@H](C)O)[C@@H](C)O)[C@@H](C)O)C(=O)N[C@@H](CS)C(=O)N[C@@H](CO)C(=O)O (H-TCTTQGCAFRLCS-OH),–
10.2,> 120,CC(C)C[C@H](NC(=O)[C@H](C)NC(=O)[C@H](CC(C)C)NC(=O)[C@@H]1CCCN1C(=O)[C@H](CS)NC(=O)[C@@H]1CCCN1C(=O)[C@H](CCCNC(=N)N)NC(=O)[C@H](C)NC(=O)[C@H](Cc1c[nH]c2ccccc12)NC(=O)[C@H](CS)NC(=O)CN)C(=O)N[C@@H](CS)C(=O)N[C@@H](CCC(N)=O)C(=O)O (H-GCWARPCPLALCQ-OH),–
> 75,–,CC(C)[C@H](N)C(=O)N[C@@H](CS)C(=O)N[C@H](C(=O)N[C@@H](CCC(N)=O)C(=O)N[C@@H](CCCCN)C(=O)N[C@@H](Cc1ccccc1)C(=O)N[C@@H](CS)C(=O)N[C@@H](Cc1c[nH]c2ccccc12)C(=O)N[C@@H](CCCNC(=N)N)C(=O)NCC(=O)N[C@@H](Cc1c[nH]c2ccccc12)C(=O)N[C@@H](CS)C(=O)N1CCC[C@H]1C(=O)O)C(C)C (H-VCVQKFCWRGWCP-OH),–
